The values below come from patent US20240108634A1, “COMPOSITIONS AND METHODS FOR INHIBITING YAP” (The United States Government as represented by the …, priority 2021, published 2024).

In experiment [1] the target is T1, YAP (Homo sapiens, UniProt P46937).
T1 construct: endogenous in cells; host or cells: LN229, T98G, GBM39
Kind of experiment: Western blot of YAP and TEAD levels in GBM lines. Format: cell-based. To be noted: LN229, T98G, GBM39; 18 h, increasing concentrations. As for the experimental part:
(§1) Levels of total YAP were determined via ELISA. […] Immunoprecipitates were immunoblotted for the indicated proteins. […] Cells were treated with the indicated concentrations of inhibitor for 18 h and mRNA extracted for real time RT-PCR analyses. Measurements were performed in quadruplicate and means and+S.D. are shown. […] Cells were treated with (+) or without (−) NSC682769 (100 nM, 18 h) and harvested and separated into cytoplasmic and nuclear cellular fractions. Cytoplasmic versus nuclear material was subsequently immunoblotted for the indicated proteins. […] Values in top right corner of panels correspond to the percentage of nuclear localized YAP. […]
(§2) Protein and mRNA analyses, immunoprecipitation, in vitro bead-coupled inhibitor binding assays and HPLC analyses. […] Antigen-antibody complexes were detected using appropriate horseradish peroxidase-conjugated secondary antibodies (GE Healthcare) and enhanced chemiluminescence (Amersham ECL Prime). […] For quantitative RT-PCR, extraction of RNA was performed using Trizol® (Life Technologies). Total RNA was then quantified and integrity assessed using an Agilent 2100 Bioanalyzer (Agilent Technology). […] SYBR® Green quantitative PCR (Millipore Sigma) was performed in triplicate in 96-well optical plates on an ABI Prism 7000 Sequence Detection System (Life Technologies) according to the manufacturer's instructions. […]

The test system of experiment [2] is YAP. Nature of the experiment: Western blot of YAP and TEAD levels in GBM lines. Format: cell-based, human. The conditions noted are these: LN229, T98G, GBM39; 18 h, increasing concentrations. On the procedure:
as §1, §2

Experiment [3] concerns CTGF & Cyr61 expression. Kind of experiment: Real time RT-PCR of YAP-target genes CTGF and Cyr61 in GBM cells. The experiment is classed as cell-based, human. To be noted: LN229 and GBM39 cells, 18 h. As for the experimental part:
as §1, §2

Experiment [4] relates to LN229 and GBM39 cells. Kind of experiment: GBM cell proliferation. The conditions noted are these: 0.1, 1, 2 μM. The experiment is classed as cell-based, human. The source says:
(§3) Cells were layered in soft agar to evaluate anchorage-independent growth in the presence of the indicated concentrations of inhibitor and colonies counted following 14 days of growth. Representative crystal violet stained images are shown below. Data represent mean+S.D. of three independent experiments. […] Cells were placed in Boyden chambers and allowed to migrate towards BSA (white bars), vitronectin (light yellow bars), or fibronectin (dark yellow bars) (*, P<0.05; n=3). […] Representative crystal violet stained images are shown (200×). Data represent mean+S.D. of three independent experiments. […] Graphical data shown below represent mean+S.D. (late apoptosis; annexin V-positive, PI-positive) of three independent experiments.
(§4) Cell proliferation, clonogenic, migration, invasion and apoptosis assays. Cell proliferation was determined via Cell Titer-Glo® luminescent cell assays (Promega). Clonogenic assays were done by plating a total of 1,000 cells per well in 24-well plates in a total volume of 400 μL using a two-layered soft agar system as previously described (Masri J, et al. (2007) Cancer Res 67: 11712-11720). Cell migration assays were conducted using precoated modified Boyden chambers as previously described (Benavides-Serrato A, et al. (2017) PLoS One 12: e0176599). […]

Experiment [5] concerns LN229 and GBM39 cells. Nature of the experiment: Soft agar colony formation (anchorage-independent growth). The experiment is classed as cell-based, human. To be noted: LN229 and GBM39, 14 days.
Source text: as §3, §4

Consider `COc1ccc(-c2cc(-c3ccccc3)nc3c2CC(=O)Nc2ccccc2-3)cc1OC` [NSC682769], for which the YAP levels result in experiment [1] is listed as “decreased”. Moreover, the TEAD levels entry in experiment [2] is listed as “unaffected”. Also, in experiment [3], the “CTGF and Cyr61 transcripts” value is “downregulated”. For the same compound, the Cell growth entry in experiment [4] is listed as “significantly inhibited”. Also, the “Clonogenic growth in soft agar” value in experiment [5] is reported as “inhibited”.
